Source: ChEMBL document CHEMBL1137405, “Structural basis for the structure-activity relationships of peroxisome proliferator-activated receptor agonists” (J Med Chem, 2006)

Columns and labels:
[1] = target: T1, Peroxisome proliferator-activated receptor alpha (Homo sapiens, UniProt Q07869); test: (§1) Activity at human PPAR alpha in Huh7 cells by transactivation assay; type: cell-based, Huh-7
T1 sequence (Q07869 whole entry): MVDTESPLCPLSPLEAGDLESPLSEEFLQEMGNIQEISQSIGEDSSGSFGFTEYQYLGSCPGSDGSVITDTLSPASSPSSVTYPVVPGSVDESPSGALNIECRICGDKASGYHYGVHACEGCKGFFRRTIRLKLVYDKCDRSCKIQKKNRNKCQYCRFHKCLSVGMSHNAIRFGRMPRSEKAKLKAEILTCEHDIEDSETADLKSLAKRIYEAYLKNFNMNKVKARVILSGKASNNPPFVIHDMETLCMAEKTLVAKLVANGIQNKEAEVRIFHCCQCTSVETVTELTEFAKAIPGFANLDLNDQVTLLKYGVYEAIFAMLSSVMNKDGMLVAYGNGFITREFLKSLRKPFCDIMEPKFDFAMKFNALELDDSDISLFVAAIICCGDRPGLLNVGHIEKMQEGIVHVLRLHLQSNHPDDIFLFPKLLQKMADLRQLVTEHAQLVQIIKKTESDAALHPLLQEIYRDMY

[2] = target: T2, Peroxisome proliferator-activated receptor alpha (Homo sapiens) (UniProt Q07869); test: as §1; type: cell-based; details: Huh-7, filed as agonist
T2 sequence (whole entry): T1 sequence (Q07869 whole entry)

[3] = target: T3, Peroxisome proliferator-activated receptor delta (Homo sapiens, UniProt Q03181); test: Activity at human PPAR delta in Huh7 cells by transactivation assay; type: cell-based, Huh-7
T3 sequence (Q03181 whole entry): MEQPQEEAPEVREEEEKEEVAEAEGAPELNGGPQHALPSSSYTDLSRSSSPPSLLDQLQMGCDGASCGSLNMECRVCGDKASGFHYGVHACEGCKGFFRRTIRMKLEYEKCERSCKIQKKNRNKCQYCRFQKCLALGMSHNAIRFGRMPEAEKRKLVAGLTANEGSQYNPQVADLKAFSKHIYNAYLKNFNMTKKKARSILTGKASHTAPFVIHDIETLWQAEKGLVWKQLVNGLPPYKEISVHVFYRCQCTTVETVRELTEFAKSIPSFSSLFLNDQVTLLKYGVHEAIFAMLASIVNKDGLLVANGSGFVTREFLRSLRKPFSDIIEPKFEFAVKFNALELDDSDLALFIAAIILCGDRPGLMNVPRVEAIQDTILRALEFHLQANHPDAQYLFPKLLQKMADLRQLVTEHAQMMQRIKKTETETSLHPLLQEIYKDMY

[4] = target: T4, Peroxisome proliferator-activated receptor gamma (Homo sapiens, UniProt P37231); type: cell-based, Huh-7
T4 sequence (P37231 whole entry): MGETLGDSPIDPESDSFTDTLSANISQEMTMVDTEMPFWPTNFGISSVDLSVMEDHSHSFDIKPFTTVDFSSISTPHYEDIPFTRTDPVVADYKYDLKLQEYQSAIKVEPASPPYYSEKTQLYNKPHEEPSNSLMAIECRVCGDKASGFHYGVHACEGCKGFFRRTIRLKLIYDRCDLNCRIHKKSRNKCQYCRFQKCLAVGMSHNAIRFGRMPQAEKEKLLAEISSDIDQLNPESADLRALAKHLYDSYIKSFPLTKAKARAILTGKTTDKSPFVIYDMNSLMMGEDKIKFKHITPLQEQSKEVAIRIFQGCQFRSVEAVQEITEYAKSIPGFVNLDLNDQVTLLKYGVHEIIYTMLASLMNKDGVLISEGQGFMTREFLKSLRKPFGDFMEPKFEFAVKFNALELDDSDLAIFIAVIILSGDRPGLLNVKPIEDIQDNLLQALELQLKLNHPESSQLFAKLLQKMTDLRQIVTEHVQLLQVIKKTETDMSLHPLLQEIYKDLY
Description: Activity at human PPAR gamma in Huh7 cells by transactivation assay

| SMILES | EC50 [1] | Activity [2] | EC50 [3] | EC50 [4] |
| --- | --- | --- | --- | --- |
| CCCc1c(OCCCn2ccc3cc(OCC(=O)O)ccc32)ccc2cc(C(=O)c3ccccc3)ccc12 | 0.032 µM | Agonist | > 10 µM | 2.21 µM |
| CCCc1c(OCCCn2ccc3c(OC(C)(C)C(=O)O)cccc32)ccc2cc(C(=O)c3ccccc3)ccc12 | 0.282 µM | Agonist | 4.3 µM | 0.21 µM |
| CCCc1c(OCCCOc2ccc3c(ccn3CC(=O)O)c2)ccc2cc(C(=O)c3ccccc3)ccc12 | – | Agonist | – | – |
| CCCc1c(OCCCn2ccc3c(OCC(=O)O)cccc32)ccc2cc(C(=O)c3ccccc3)ccc12 | 0.206 µM | – | > 10 µM | 4.22 µM |
| CCCc1c(OCCCn2ccc3ccc(OC(C)(C)C(=O)O)cc32)ccc2cc(C(=O)c3ccccc3)ccc12 | 1.1 µM | – | 4.63 µM | 0.47 µM |
| CCCc1c(OCCCn2ccc3ccc(OCC(=O)O)cc32)ccc2cc(C(=O)c3ccccc3)ccc12 | 2.08 µM | – | 6.98 µM | 3.47 µM |
| CCCc1c(OCCCn2ccc3cc(OC(C)(C)C(=O)O)ccc32)ccc2cc(C(=O)c3ccccc3)ccc12 | 0.123 µM | Agonist | > 10 µM | 0.65 µM |
